The values that follow come from patent US20170333560A1, “Pharmaceutical Composition That Includes A Neutral Carrier Treated With Energy And Related Methods Of Treatment” (priority 2016, published 2017).

For data set [1], the system named is pseudoneurotic disorder in patients with organic brain disease. The experiment in a line: Study of pseudoneurotic disorder in organic brain disease (anxiety levels, Hamilton scale). The format is in vivo, human. The method, then: (§1) A study was conducted to examine the efficacy of the claimed drug, formulated as a water solution (liquid dosage form) of the activated (potentized) energy-treated carrier, obtained by multiple consecutive dilution of the initial matrix solution in an aqueous-alcoholic diluent, combined with external mechanical impact—shaking of each resulting dilution, to a degree of 100^200, equivalent to a centesimal (C200) homeopathic dilution (wherein the energy treatment of the initial neutral carrier has been accomplished by exposing it to an electric current caused by a difference of potentials being applied to electrodes placed in the initial liquid carrier and which is proportional in amplitude to an amplified combined, summed signal, formed by summing the resultant signals—biopotential differences of individual referential derivations recorded in five healthy donors using the internationally recognized 10-20 system, which involves 19 active recording electrodes placed in regular positions all over the scalp and one reference electrode located on the ear-lobe)—further referred to as AP drug—in treating pseudoneurotic disorder in patients with organic brain disease. […]

For data set [2], the system named is scopolamine-induced amnesia in male albino Wistar rats. The experiment in a line: Scopolamine-induced amnesia for passive avoidance conditioning. The format is in vivo, rat. The method, then:
A study was conducted to evaluate the nootropic effect of the claimed drug, formulated as a water solution (liquid dosage form) of the activated (potentized) energy-treated carrier, obtained by multiple consecutive dilution of the initial matrix solution in an aqueous-alcoholic diluent, combined with external mechanical impact—shaking of each resulting dilution, to a degree of 100^200, equivalent to a centesimal (C200) homeopathic dilution (wherein the energy treatment of the initial liquid carrier has been accomplished by exposing it to an electric current caused by a difference of potentials being applied to electrodes placed in the initial liquid carrier and which is proportional in amplitude to an amplified combined, summed signal, formed by summing the resultant signals—biopotential differences of individual referential derivations recorded in five healthy donors using the internationally recognized 10-20 system, which involves 19 active recording electrodes placed in regular positions all over the scalp and one reference electrode located on the ear-lobe)—further referred to as AP drug, using standard experimental approaches—by examining the test drug's antiamnestic effects in scopolamine-induced amnesia for passive avoidance conditioning in sexually mature rats. A total of 36 male albino Wistar rats were used for the study.
For amnesia induction, 15 minutes prior to passive avoidance training, the animals were administered a single intraperitoneal dose (2 mg/kg) of a muscarinic receptor antagonist—scopolamine.
AP drug was administered to 12 rats intragastrically, at 2.5 ml/kg daily, prior to training (1 hour before the start of the experiment), immediately after training, 24 hours post training, and 1 hour prior to the passive avoidance recall test. […]
On the memory recall test, the rats' behavior was evaluated by examining: latency time taken by test animals to first enter the dark compartment and total time spent therein over a certain time period.
The conditioning of passive avoidance behavior was as follows: On day 1, the animals were trained to stay in a shuttle box, which consisted of a large, 300×300×250 mm, white illuminated compartment (with transparent walls) and a smaller, 150×150×180 mm, black dark compartment with an electrical grid floor. […] For 3 minutes, the total times of the rat's stay in the small compartment and latency before moving in were recorded. […]
The data gathered were recorded as the mean (M) and standard error of the mean (SEM). […] The results of examining the rats' memory recall were analyzed for statistical significance with the Wilcoxon test. […]

The subject of data set [3] is children with clinical signs and symptoms of a hyperkinetic disorder (HD). The experiment in a line: Comparative study versus piracetam in children with hyperkinetic disorder (SNAP-IV, TOVA, fine motor skills). The format is in vivo, human. To be noted: for TOVA Commission errors, % / TOVA Omission errors, % / TOVA Response time: after two months. The source says:
The study included 57 children aged from 6 to 9 years (40 boys and 17 girls), who were nursery/preschool attendants and primary school students.
The inclusion criteria were: 1. Children with clinical signs and symptoms of a hyperkinetic disorder (HD) meeting the ICD-10 criteria (F 90); 2. Age range: 6 to 9 years; 3. At least a medium IQ score (90 points) on the Wechsler Intelligence Scale.
The study excluded children with behavior disturbances related to other mental disorders. Children with HD signs and symptoms who were allocated to the group of test treatment (n=30) received AP drug as a monotherapy, at 2 tablets 3 times daily for 2 months.
This assessment was repeated following two months of treatment with AP drug (test group) and piracetam (control group). The scores obtained were compared with the normative rating results and statistically analyzed (Table 11).
The computer-based psychophysiological TOVA assessment involved three sets of tests measuring inattention (omission errors), impulsivity (commission errors), and speed of information processing (response time). The baseline measurements of HD children were compared with those obtained in the test group (AP drug) and in the control group (piracetam) after two months of treatment.

Data set [4] concerns male albino Wistar rats. The experiment in a line: Porsolt forced swimming test. The format is in vivo, rat. The conditions noted are these: compared to controls; single intragastric dose. How it is done:
as §1, with “evaluate” for “examine”, “antidepressant effect” for “efficacy”, “summed up” for “summed”, “drug, using standard experimental approaches—by examining animals' depression-like behavior (behavioral despair)” for “drug—in treating pseudoneurotic disorder”, “the Porsolt forced swimming test and Nomura's model employing forced-rotating-wheel swim test.” for “patients with organic brain disease.”

Data set [5] deals with male albino Wistar rats. Description: Nomura forced-rotating-wheel swim test. The format is in vivo, rat. The conditions noted are these: compared to controls; single intragastric dose; 10 minutes. The method, then: as §1, with “evaluate” for “examine”, “antidepressant effect” for “efficacy”, “summed up” for “summed”, “drug, using standard experimental approaches—by examining animals' depression-like behavior (behavioral despair)” for “drug—in treating pseudoneurotic disorder”, “the Porsolt forced swimming test and Nomura's model employing forced-rotating-wheel swim test.” for “patients with organic brain disease.”

With `O=C1CN=C(c2ccccc2Cl)c2cc(Br)ccc2N1` [phenazepam], the Hamilton scale score stood at 31.7±1.5 in data set [1] (after treatment) and 32.8±1.4 in data set [1] (baseline score).

In the case of `NC(=O)CN1CCCC1=O` [piracetam], in data set [2] (Memory recall), the “Latency to enter the aversive compartment” value is on record as 53.71 s and the “Time spent in the black compartment” value is 13.11 s. Further, in data set [2] (Training), the “Latency to enter the aversive compartment” value was found to be 11.07 s and the “Time spent in the black compartment” value was found to be 21.1 s. In addition, in data set [3] (2 months), the “Children with increased disinhibition/excitability” value worked out at 11.1% and the “Children with sleep problems” value was 26%. In data set [3] (First section), the “TOVA Commission errors, %” value was 12.5 ± 3.2%; the “TOVA Omission errors, %” value is reported as 13.6 ± 1.4 %; the “TOVA Response time” value stood at 736 ± 83 ms. Moreover, in data set [3] (Second section), the “TOVA Commission errors, %” value worked out at 21.1 ± 2.7%; the “TOVA Omission errors, %” value stood at 17.2 ± 2.8 %; the “TOVA Response time” value was found to be 656 ± 79 ms. Further, the “Total score for fine motor skills” value in data set [3] (after treatment completion) was determined as 1.62 ± 0.16. Moreover, in data set [3] (after two months of treatment), the “SNAP-IV Attention problems” value came out at 2.48 ± 0.12, the “SNAP-IV Hyperactivity” value is 2.41 ± 0.10 and the “SNAP-IV Impulsivity” value is recorded as 2.28 ± 0.22.

Consider `CN(C)CCC=C1c2ccccc2CCc2ccccc21` [reference compound, amitriptyline], for which, in the data set on male albino Wistar rats [4], the “Reduction of immobility time” value was found to be 56%. Besides, the “Increase of number of wheel rotations” value with male albino Wistar rats [5] was determined as 67%.
